Biological target: T1, Formyl peptide receptor 1 (FPR1) (Homo sapiens, UniProt P21462)
T1 construct: human neutrophils; also hFPR1 (NM_002029)-transfected HEK-293 and differentiated THP-1 cells
T1 sequence (P21462 1-350): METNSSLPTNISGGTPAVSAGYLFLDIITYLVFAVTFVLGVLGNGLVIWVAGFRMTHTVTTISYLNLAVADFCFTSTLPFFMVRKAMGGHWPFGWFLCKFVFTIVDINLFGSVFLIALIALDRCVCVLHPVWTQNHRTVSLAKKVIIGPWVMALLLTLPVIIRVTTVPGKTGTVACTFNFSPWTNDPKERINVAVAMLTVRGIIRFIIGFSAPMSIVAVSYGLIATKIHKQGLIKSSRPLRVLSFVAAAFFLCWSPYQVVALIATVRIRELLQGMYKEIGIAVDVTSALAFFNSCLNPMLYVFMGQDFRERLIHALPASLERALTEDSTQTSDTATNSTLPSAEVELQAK
Experiment: displacement of fluorescent FPR1 ligand fNLFNYK on intact cells, flow cytometry
Format: cell-based

C=CCc1ccc(O)c(-c2ccc(O)c(CC=C)c2)c1 [H, Honokiol]
IC50: 7.44 ± 0.97 µM

— article PMC5532207, “Honokiol suppresses formyl peptide-induced human neutrophil activation by blocking formyl peptide receptor 1” (Scientific Reports, 2017)
